Patent publication US20240408169A1 (priority 2023, published 2024)
Read-outs that look alike come from different tables or passages of the source. *1 amine or outer side, *2 acyl side, *3 side chain or, on linkers, in order; H or OH if unused. Where a SMILES comes first, the peptide text is derived from it. Bridges are numbered along the chain shown (N, C = ends). [ ]: non-standard residue; d: D form. The star is where a group is joined. X144 = CN([C@@H](Cc1cc(Cl)ccc1-c1ccc(N2CC(C)(F)C2)nc1)C(=O)[*:2])[*:1]; X175 = Cc1cc(-c2ccc(Cl)cc2C[C@@H](C(=O)[*:2])N(C)[*:1])ccc1N1CCOCC1; X130 = CN([C@@H](Cc1cc(F)ccc1-c1ccn(S(C)(=O)=O)c1)C(=O)[*:2])[*:1]; X186 = CN([C@@H](Cc1cc(Cl)ccc1-c1ccc(N2CCOCC2)cn1)C(=O)[*:2])[*:1]; X87 = CN([C@@H](Cc1cc(F)ccc1-c1ccc(N2CCOCC2)cc1)C(=O)[*:2])[*:1]; X183 = CN([C@@H](Cc1cc(Cl)ccc1-c1ccc2nncn2c1)C(=O)[*:2])[*:1]; NMehhhLys(Me) = CN([C@@H](CCCCCCCN(C)[*:3])C(=O)[*:2])[*:1]; X188 = CN([C@@H](Cc1cc(Cl)ccc1-c1ccn(C)n1)C(=O)[*:2])[*:1]; X154 = Cc1oncc1-c1ccc(Cl)cc1C[C@@H](C(=O)[*:2])N(C)[*:1]; NMe(hhhLys) = CN([C@@H](CCCCCCCN[*:3])C(=O)[*:2])[*:1]; X143 = CN([C@@H](Cc1cc(F)cc2cccnc12)C(=O)[*:2])[*:1]; cBuCO(3,3-F2-1-CF3) = O=C(C1(C(F)(F)F)CC(F)(F)C1)*; Pro(trans-4-F) = O=C(O)[C@@H]1C[C@@H](F)CN1; Gly(cPr) = N[C@H](C(=O)O)C1CC1

Legend:
[1] = target: T1, CyclinB1/CDK1 (Homo sapiens, UniProt P14635); test: Fluorescence Polarization (FP) competitive binding assay, Cyclin B1/Cdk1;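 also: fluorescence polarization read after equilibration at room temperature, with IC50 taken from serially diluted dose-response curves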
T1 construct: purchased Eurofins, discovery 14-450

[2] = target: T2, CyclinE1/CDK2 (Homo sapiens, UniProt P24864); test: Fluorescence Polarization (FP) competitive binding assay, Cyclin E1/Cdk2;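 also: readings taken after two-hour equilibration at room temperature in HEPES buffer with NaCl, DTT, NP-40 and BSA, IC50 fitted from eight-concentration serial dilution series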
T2 construct: purchased Eurofins, discovery 14-475

[3] = tested on: NCI-H1048 cells; test: MTT proliferation assay, NCI-H1048; assay type: cell-based; conditions: 5 days compound exposure, 1:3 serial dilution starting at 10 μM;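 also: Dose-response in 96-well plates over 8 or 10 concentration points, with exposure spanning 3-4 cell doublings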
[4] = tested on: OVCAR3 cells; test: MTT proliferation assay, OVCAR3; assay type: cell-based; conditions: 5 days compound exposure, 1:3 serial dilution starting at 10 μM;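 also: compound given as an 8- or 10-point series, one day after plating, with exposure covering roughly 3-4 cell doublings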
[5] = target: T3, CyclinA2/CDK2 (Homo sapiens, UniProt P20248); test: Fluorescence Polarization (FP) competitive binding assay, Cyclin A2/Cdk2;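 also: plates equilibrated two hours at room temperature before polarization reading, IC50 fitted from eight-concentration compound titration curves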
T3 construct: purchased CRELUX Protein Services

[6] = 10 nM Cyclin B1/Cdk1, 2 nM FAM probe; average of 2-3 independent experiments; read-out: Cyclin B FP IC50
[7] = 10 nM Cyclin E1/Cdk2, 2 nM FAM probe, average of 2-3 independent experiments, read-out: Cyclin E FP IC50
[8] = 8 nM Cyclin A2/Cdk2, 2 nM FAM probe, average of 2-3 independent experiments, read-out: Cyclin A FP IC50
[9] = read-out: Cyclin B FP IC50; 10 nM Cyclin B1/Cdk1, 2 nM FAM probe; average of 2-3 independent experiments

| Structure (SMILES) | IC50 [1, 6] [nM] | IC50 [2, 7] [nM] | GI50 [3] [nM] | GI50 [4] [nM] | IC50 [5, 8] [nM] | IC50 [1, 9] [nM] | IC50 [2] [nM] | IC50 [5] [nM] |
| --- | --- | --- | --- | --- | --- | --- | --- | --- |
| CC(C)C[C@@H]1NC(=O)[C@@H](N(C)C(=O)[C@@H](NC(=O)[C@@H]2C[C@@H](F)CN2C(=O)C2(C(F)(F)F)CC(F)(F)C2)C2CC2)CCCCCCCN(C)C(=O)[C@H](Cc2cc(Cl)ccc2-c2ccc3nncn3c2)N(C)C1=O [Example 178] ({cBuCO(3,3-F2-1-CF3)}-[Pro(trans-4-F)][Gly(cPr)][NMehhhLys(Me)]L[X183]; lactam 3-C) | 20 | 5460 | 1180 | 2570 | 50 | – | – | – |
| CC(C)C[C@@H]1NC(=O)[C@@H](N(C)C(=O)[C@@H](NC(=O)[C@@H]2C[C@@H](F)CN2C(=O)C2(C(F)(F)F)CC(F)(F)C2)C2CC2)CCCCCCCNC(=O)[C@H](Cc2cc(F)ccc2-c2ccc(N3CCOCC3)cc2)N(C)C1=O [Example 334] ({cBuCO(3,3-F2-1-CF3)}-[Pro(trans-4-F)][Gly(cPr)][NMe(hhhLys)]L[X87]; lactam 3-C) | 20 | 190 | 10 | 10 | 20 | – | – | – |
| Cc1cc(-c2ccc(Cl)cc2C[C@H]2C(=O)N(C)CCCCCCC[C@H](N(C)C(=O)[C@@H](NC(=O)[C@@H]3C[C@@H](F)CN3C(=O)C3(C(F)(F)F)CC(F)(F)C3)C3CC3)C(=O)N[C@@H](CC(C)C)C(=O)N2C)ccc1N1CCOCC1 [Example 344] ({cBuCO(3,3-F2-1-CF3)}-[Pro(trans-4-F)][Gly(cPr)][NMehhhLys(Me)]L[X175]; lactam 3-C) | 20 | 1270 | 10 | 20 | 20 | – | – | – |
| CC(C)C[C@@H]1NC(=O)[C@@H](N(C)C(=O)[C@@H](NC(=O)[C@@H]2C[C@@H](F)CN2C(=O)C2(C(F)(F)F)CC(F)(F)C2)C2CC2)CCCCCCCN(C)C(=O)[C@H](Cc2cc(F)ccc2-c2ccn(S(C)(=O)=O)c2)N(C)C1=O [Example 306] ({cBuCO(3,3-F2-1-CF3)}-[Pro(trans-4-F)][Gly(cPr)][NMehhhLys(Me)]L[X130]; lactam 3-C) | 20 | 200 | 10 | 10 | 20 | – | – | – |
| CC(C)C[C@@H]1NC(=O)[C@@H](N(C)C(=O)[C@@H](NC(=O)[C@@H]2C[C@@H](F)CN2C(=O)C2(C(F)(F)F)CC(F)(F)C2)C2CC2)CCCCCCCN(C)C(=O)[C@H](Cc2cc(Cl)ccc2-c2ccc(N3CC(C)(F)C3)nc2)N(C)C1=O [Example 402] ({cBuCO(3,3-F2-1-CF3)}-[Pro(trans-4-F)][Gly(cPr)][NMehhhLys(Me)]L[X144]; lactam 3-C) | 20 | 960 | 40 | 10 | 20 | – | – | – |
| CC(C)C[C@@H]1NC(=O)[C@@H](N(C)C(=O)[C@@H](NC(=O)[C@@H]2C[C@@H](F)CN2C(=O)C2(C(F)(F)F)CC(F)(F)C2)C2CC2)CCCCCCCN(C)C(=O)[C@H](Cc2cc(Cl)ccc2-c2ccn(C)n2)N(C)C1=O [Example 205] ({cBuCO(3,3-F2-1-CF3)}-[Pro(trans-4-F)][Gly(cPr)][NMehhhLys(Me)]L[X188]; lactam 3-C) | – | – | 20 | 30 | – | 20 | 480 | 30 |
| CC(C)C[C@@H]1NC(=O)[C@@H](NC(=O)[C@@H](NC(=O)[C@@H]2C[C@@H](F)CN2C(=O)C2(C(F)(F)F)CC2)C2CC2)CC=CCCCCN(C)C(=O)[C@H](Cc2cc(Cl)ccc2Cl)N(C)C1=O [Example 11] | 20 | 100 | 80 | 210 | 170 | – | – | – |
| CC(C)C[C@@H]1NC(=O)[C@@H](N(C)C(=O)[C@@H](NC(=O)[C@@H]2C[C@@H](F)CN2C(=O)C2(C(F)(F)F)CC(F)(F)C2)C2CC2)CCCCCCCN(C)C(=O)[C@H](Cc2cc(F)cc3cccnc23)N(C)C1=O [Example 423] ({cBuCO(3,3-F2-1-CF3)}-[Pro(trans-4-F)][Gly(cPr)][NMehhhLys(Me)]L[X143]; lactam 3-C) | 20 | 710 | 200 | 70 | 720 | – | – | – |
| CC(C)C[C@@H]1NC(=O)[C@@H](N(C)C(=O)[C@@H](NC(=O)[C@@H]2C[C@@H](F)CN2C(=O)C2(C(F)(F)F)CC(F)(F)C2)C2CC2)CCCCCCCN(C)C(=O)[C@H](Cc2cc(Cl)ccc2-c2ccc(N3CCOCC3)cn2)N(C)C1=O [Example 382] ({cBuCO(3,3-F2-1-CF3)}-[Pro(trans-4-F)][Gly(cPr)][NMehhhLys(Me)]L[X186]; lactam 3-C) | 20 | 2490 | 90 | 40 | 40 | – | – | – |
| Cc1oncc1-c1ccc(Cl)cc1C[C@H]1C(=O)N(C)CCCCCCC[C@H](N(C)C(=O)[C@@H](NC(=O)[C@@H]2C[C@@H](F)CN2C(=O)C2(C(F)(F)F)CC(F)(F)C2)C2CC2)C(=O)N[C@@H](CC(C)C)C(=O)N1C [Example 212] ({cBuCO(3,3-F2-1-CF3)}-[Pro(trans-4-F)][Gly(cPr)][NMehhhLys(Me)]L[X154]; lactam 3-C) | – | – | 80 | 80 | – | 20 | 4160 | 70 |
